Data published in patent publication US6994283B1, “Method for pulverizing to fine powder” (Nippon Shinyaku Co., Ltd., priority 1999, dated 2006).

How the values were obtained:
[1] = Determination of particle diameter (ultracentrifugal automatic particle size distribution analyzer, silicone oil dispersion); format: physicochemical
Protocol: Determination of Particle Diameter
Twenty (20) mg each of the pre-pulverized present compound and the pulverizates of the compound as obtained in Examples 1 and 2 and Comparative Example 1 was taken in a test tube and 5 ml of silicone oil (product of Shin-Etsu Chemical Co.) was added. The mixture was stirred with a bench-top mixer for 20 seconds and further dispersed with a bench-top supersonic washer (UT-51N, product of Sharp Corporation) for 5 minutes. Then, the particle size distribution was determined with an ultracentrifugal automatic particle size distribution analyzer (CAPA-700, manufactured by Horiba, Ltd.).

[2] = Confirmation of crystalline state by powder X-ray diffraction; format: physicochemical; details: after a pulverization time of 60 minutes, mill of the closed-circuit pulverizing type
Protocol: Confirmation of Crystalline State
Using each of the unpulverized present compound and the pulverizates of the same compound as obtained in Examples 1 and 2 and Comparative Example 1, the powder X-ray diffraction pattern was recorded with a powder x-ray diffraction analyzer (RAD-2B, manufactured by Rigaku Denki).
It will be apparent from the drawings that the pulverizates as micronized with a mill of the open-circuit pulverizing type retained the crystalline form, showing X-ray diffraction peaks.

[3] = Administration experiment (in vivo): oral capsule, plasma concentration of the metabolite by HPLC; details: 4 male crab-eating monkeys, capsule of Example 1 pulverizate versus capsule of unpulverized compound
Description: Administration Experiment (in vivo)
A capsule prepared using the unpulverized present compound and a capsule prepared using the pulverizate obtained in Example 1 (the present pulverizate) according to the physical blending formula shown in Table 2 were respectively administered orally to 4 crab-eating monkeys (male, aged 6˜9 years). The blood was serially sampled and the plasma concentration of the metabolite of the present compound [(E)-4-[2-[2-[N-(4-methoxybenzenesulfonyl)amino]phenyl]-ethenyl]pyridine 1-oxide] was determined by HPLC.
The abscissa represents time (hrs) and the ordinate represents the plasma concentration (μg/ml) of the metabolite.

[4] = before pulverization (bulk powder)
[5] = after 120 min. pulverization, planetary ball-mill

| SMILES | Fraction of particles ≧30 μm ([1]; after pulverization) [%] | Fraction of particles ≧50 μm ([1]; after pulverization) [%] | Mean particle diameter ([1]; after pulverization) [μm] | Fraction of particles ≧30 μm [1, 4] [%] | Fraction of particles ≧50 μm [1, 4] [%] | Mean particle diameter [1, 4] [μm] | Mean particle diameter ([1]; after 30 min. pulverization, planetary ball-mill) [μm] | Mean particle diameter ([1]; after 60 min. pulverization, planetary ball-mill) [μm] | Fraction of particles ≧30 μm [1, 5] [%] | Mean particle diameter [1, 5] [μm] | Crystalline state (X-ray diffraction peaks) [2] | Plasma concentration (metabolite determined by HPLC) [3] |
| --- | --- | --- | --- | --- | --- | --- | --- | --- | --- | --- | --- | --- |
| COc1ccc(S(=O)(=O)N(C(C)=O)c2ccccc2/C=C/c2cc[n+]([O-])cc2)cc1 [Example 2, (E)-4-[2-[2-[N-acetyl-N-(4-methoxybenzenesulfonyl)amino]phenyl]ethenyl]-pyridine 1-oxide] | 6.8 | 0 | 15.2 ± 6.8 | 26.6 | 12.8 | 24.2 ± 31.2 | – | – | – | – | – | – |
| COc1ccc(S(=O)(=O)N(C(C)=O)c2ccccc2/C=C/c2cc[n+]([O-])cc2)cc1 [Comparative Example, (E)-4-[2-[2-[N-acetyl-N-(4-methoxybenzenesulfonyl)amino]phenyl]ethenyl]-pyridine 1-oxide] | – | – | – | 35.5 | 20.4 | 25.9 ± 43.3 | 15.1 | 12.4 | 0 | 10.7 ± 4.5 | changed to a non-crystalline compound showing no X-ray diffraction peaks | – |
| COc1ccc(S(=O)(=O)N(C(C)=O)c2ccccc2/C=C/c2cc[n+]([O-])cc2)cc1 [Example 1, (E)-4-[2-[2-[N-acetyl-N-(4-methoxybenzenesulfonyl)amino]phenyl]ethenyl]-pyridine 1-oxide] | 0 | – | 9.7 ± 4.3 | 35.5 | 20.4 | 25.9 ± 43.3 | – | – | – | – | – | – |
| COc1ccc(S(=O)(=O)N(C(C)=O)c2ccccc2/C=C/c2cc[n+]([O-])cc2)cc1 [the present compound, (E)-4-[2-[2-[N-acetyl-N-(4-methoxybenzenesulfonyl)amino]phenyl]ethenyl]-pyridine 1-oxide] | – | – | – | – | – | – | – | – | – | – | – | significantly increased |
